pEC50: −log10 of the molar value. Converted amounts (≈) assume the structure as drawn.
Key:
[1] = molecular target: Neuropeptide Y receptor type 2 (Homo sapiens) (UniProt P49146); experiment: Displacement of [125I]peptide YY from human Y2 receptor in KAN-TS cell membrane assessed as residual binding level for radioligand at 10 uM after 120 mins by scintillation counting analysis relative to control
[2] = molecular target: Androgen receptor (Homo sapiens) (UniProt P10275); experiment: Displacement of [3H]methyltrienolone from androgen receptor in human LNCaP cells assessed as residual binding level for radioligand at 10 uM measured after 1200 mins radiometric scintillation analysis relative to control; type: cell-based
[3] = Half life in dog; type: ADME, Canis lupus familiaris; conditions: in vivo
[4] = Solubility of the compound in simulated gastric fluid; type: physicochemical
[5] = Positive allosteric modulation of cynomolgus monkey M4 receptor; parameters: species or system Macaca fascicularis
Rattus norvegicus [6] = organism: Rattus norvegicus; experiment: Displacement of [3H]-Flunitrazepam from Wistar rat brain GABA(A)/BzR site assessed as residual binding level for radioligand at 10 uM measured after 60 mins by scintillation counting method relative to control; type: tissue-based
[7] = molecular target: Alpha-2A adrenergic receptor (Homo sapiens) (UniProt P08913); experiment: Displacement of [3H][…] from recombinant full length human adrenergic alpha 2A receptor expressed in CHO-K1 cells assessed as residual binding level for radioligand at 10 uM incubated for 60 mins by radiometric scintillation analysis relative to control; type: cell-based
[8] = molecular target: T1, Muscarinic acetylcholine receptor M2 (Homo sapiens, UniProt P08172); experiment: Positive allosteric modulation of human M2 receptor/Gqi5 in presence of EC20 acetylcholine by calcium mobilization assay
T1 sequence (P08172 whole entry): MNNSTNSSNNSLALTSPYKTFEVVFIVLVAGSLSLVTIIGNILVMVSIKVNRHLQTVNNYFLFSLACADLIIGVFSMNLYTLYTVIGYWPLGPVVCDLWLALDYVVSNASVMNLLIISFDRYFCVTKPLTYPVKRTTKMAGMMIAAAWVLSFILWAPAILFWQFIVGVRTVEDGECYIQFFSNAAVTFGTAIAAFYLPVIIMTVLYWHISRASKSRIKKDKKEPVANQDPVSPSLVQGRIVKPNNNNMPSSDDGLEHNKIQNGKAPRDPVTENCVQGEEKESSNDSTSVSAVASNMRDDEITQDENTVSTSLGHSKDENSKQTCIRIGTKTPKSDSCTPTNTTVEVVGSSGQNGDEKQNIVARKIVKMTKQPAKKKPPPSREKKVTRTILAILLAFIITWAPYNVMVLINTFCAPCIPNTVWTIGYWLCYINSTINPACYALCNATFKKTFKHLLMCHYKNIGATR

Rattus norvegicus [9] = experiment: Reversal of amphetamine-induced hyperlocomotion in rat at 0.56 mg/kg, po relative to control; type: functional
[10] = molecular target: Sigma non-opioid intracellular receptor 1 (Homo sapiens) (UniProt Q99720); experiment: Displacement of [3H]-(+)-pentazocine from human sigma-1 receptor in human T lymphocyte Jurkat cell membrane assessed as residual binding level for radioligand at 10 uM incubated for 120 mins by liquid scintillation counting method relative to control; type: tissue-based
Mus musculus = experiment: Reversal of amphetamine-induced hyperlocomotion in po dosed C57BL/6 mouse assessed as minimum effective dose pretreated for 30 mins after habituation in chamber followed by amphetamine challenge and measured after 1 hr; type: functional; conditions: C57BL/6, po, 0.5 h, read-out: MED
[11] = Unbound brain-to-plasma concentration ratio in Sprague-Dawley rat at 0.1 to 0.2 mg/kg, iv measured after 1.5 hrs; type: ADME, organism-based; conditions: dose 0.1-0.2 mg/kg, read-out: K(p,uu,brain)
[12] = molecular target: Muscarinic acetylcholine receptor M3 (Homo sapiens, UniProt P20309); experiment: Positive allosteric modulation of human M3 receptor
[13] = Brain to plasma permeability coefficient, Kp in Sprague-Dawley rat at 0.1 to 0.2 mg/kg, iv measured after 0.25 hrs; type: ADME, organism-based; conditions: dose 0.1-0.2 mg/kg
Rattus norvegicus [14] = organism: Rattus norvegicus; experiment: Displacement of [3H]-Batrachotoxinin from Wistar rat sodium channel site 2 assessed as residual binding level for radioligand at 10 uM incubated for 60 mins by scintillation counting analysis relative to control; type: tissue-based; conditions: Brain
[15] = Plasma clearance in rat; type: ADME; conditions: read-out: CL(app)
[16] = molecular target: Gamma-aminobutyric acid type B receptor subunit 1 (Homo sapiens) (UniProt Q9UBS5); experiment: Displacement of [3H]CGP-54626 from human recombinant full length GABAB1 receptor expressed in CHO-K1 cells assessed as residual binding level for radioligand at 10 uM incubated for 180 mins by scintillation counting analysis relative to control; type: cell-based
[17] = molecular target: Delta-type opioid receptor (Homo sapiens) (UniProt P41143); experiment: Displacement of [3H]-Naltrindole from recombinant full length human delta opioid receptor expressed in HEK293 cells assessed as residual binding level for radioligand at 10 uM incubated for 60 mins by scintillation counting analysis relative to control; type: cell-based
[18] = molecular target: Prostaglandin E2 receptor EP4 subtype (Homo sapiens) (UniProt P35408); experiment: Displacement of [3H]-Prostaglandin E2 from full length recombinant human prostanoid receptor EP4 expressed in Chem-1 cells assessed as residual binding level for radioligand at 10 uM incubated for 120 mins by scintillation counting analysis relative to control; type: cell-based
[19] = molecular target: Cannabinoid receptor 1 (Homo sapiens) (UniProt P21554); experiment: Displacement of [3H]-SR141716A from human recombinant full length Cannabinoid CB1 receptor expressed in Chem-1 cells assessed as residual binding level for radioligand at 10 uM incubated for 60 mins by radiometric scintillation analysis relative to control; type: cell-based
[20] = molecular target: T2, Muscarinic acetylcholine receptor M4 (Homo sapiens) (UniProt P08173); experiment: Positive allosteric modulation of human M4 receptor/Gqi5 in presence of EC20 acetylcholine by calcium mobilization assay relative to acetylcholine; type: functional; conditions: filed as positive allosteric modulator
T2 sequence (whole entry): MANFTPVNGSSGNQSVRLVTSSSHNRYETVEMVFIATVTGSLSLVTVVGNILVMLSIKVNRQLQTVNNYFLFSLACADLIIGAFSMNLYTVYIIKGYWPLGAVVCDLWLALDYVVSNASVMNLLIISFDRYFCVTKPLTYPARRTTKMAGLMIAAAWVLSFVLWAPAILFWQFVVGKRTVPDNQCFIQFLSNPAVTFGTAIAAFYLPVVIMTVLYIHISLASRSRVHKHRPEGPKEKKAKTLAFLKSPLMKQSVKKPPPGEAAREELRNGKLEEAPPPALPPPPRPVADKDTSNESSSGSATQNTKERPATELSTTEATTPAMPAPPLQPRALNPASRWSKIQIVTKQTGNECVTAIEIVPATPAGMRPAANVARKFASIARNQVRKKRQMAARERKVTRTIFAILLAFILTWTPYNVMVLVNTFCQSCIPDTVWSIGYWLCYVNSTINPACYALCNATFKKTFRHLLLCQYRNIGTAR

[21] = molecular target: T3, Muscarinic acetylcholine receptor M4 (Homo sapiens, UniProt P08173); experiment: Positive allosteric modulation of human M4 receptor/Gqi5 in presence of EC20 acetylcholine by calcium mobilization assay; type: functional
T3 sequence (P08173 whole entry): T2 sequence (whole entry)

[22] = molecular target: Estrogen receptor (Homo sapiens) (UniProt P03372); experiment: Displacement of [3H]estradiol from recombinant full length human recombinant ERalpha receptor expressed in Sf9 insect cells assessed as residual binding level for radioligand at 10 uM measured after 120 mins by radiometric scintillation analysis relative to contro
Chain of Estrogen receptor (Homo sapiens) (P03372 whole entry): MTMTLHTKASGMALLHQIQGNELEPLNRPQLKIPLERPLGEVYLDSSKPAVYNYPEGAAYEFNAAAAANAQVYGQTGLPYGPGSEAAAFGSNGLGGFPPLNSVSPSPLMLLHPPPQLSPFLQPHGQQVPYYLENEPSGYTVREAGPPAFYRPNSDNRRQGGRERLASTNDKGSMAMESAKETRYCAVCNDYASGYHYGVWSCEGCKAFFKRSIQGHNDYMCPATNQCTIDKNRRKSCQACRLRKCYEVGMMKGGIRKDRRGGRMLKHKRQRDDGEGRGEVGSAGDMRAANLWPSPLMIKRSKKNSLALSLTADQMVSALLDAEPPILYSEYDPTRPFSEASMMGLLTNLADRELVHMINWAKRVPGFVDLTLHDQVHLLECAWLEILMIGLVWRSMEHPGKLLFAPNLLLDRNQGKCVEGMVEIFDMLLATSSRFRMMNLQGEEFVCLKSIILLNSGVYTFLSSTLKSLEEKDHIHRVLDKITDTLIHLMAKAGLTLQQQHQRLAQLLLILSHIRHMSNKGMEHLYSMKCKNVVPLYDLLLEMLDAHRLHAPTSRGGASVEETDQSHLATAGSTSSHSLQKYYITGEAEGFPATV

Chain of Neuropeptide Y receptor type 2 (Homo sapiens) (P49146 whole entry): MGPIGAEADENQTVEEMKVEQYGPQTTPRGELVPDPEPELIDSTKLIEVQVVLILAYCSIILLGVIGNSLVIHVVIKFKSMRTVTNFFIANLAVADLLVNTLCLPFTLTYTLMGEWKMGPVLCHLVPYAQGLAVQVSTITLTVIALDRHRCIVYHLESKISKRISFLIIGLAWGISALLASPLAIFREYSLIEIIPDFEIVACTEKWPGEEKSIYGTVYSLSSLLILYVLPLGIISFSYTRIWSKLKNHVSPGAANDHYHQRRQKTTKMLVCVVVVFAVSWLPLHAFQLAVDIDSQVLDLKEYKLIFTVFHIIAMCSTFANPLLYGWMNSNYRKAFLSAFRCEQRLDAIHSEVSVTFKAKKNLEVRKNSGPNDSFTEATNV
Chain of Androgen receptor (Homo sapiens) (P10275 whole entry): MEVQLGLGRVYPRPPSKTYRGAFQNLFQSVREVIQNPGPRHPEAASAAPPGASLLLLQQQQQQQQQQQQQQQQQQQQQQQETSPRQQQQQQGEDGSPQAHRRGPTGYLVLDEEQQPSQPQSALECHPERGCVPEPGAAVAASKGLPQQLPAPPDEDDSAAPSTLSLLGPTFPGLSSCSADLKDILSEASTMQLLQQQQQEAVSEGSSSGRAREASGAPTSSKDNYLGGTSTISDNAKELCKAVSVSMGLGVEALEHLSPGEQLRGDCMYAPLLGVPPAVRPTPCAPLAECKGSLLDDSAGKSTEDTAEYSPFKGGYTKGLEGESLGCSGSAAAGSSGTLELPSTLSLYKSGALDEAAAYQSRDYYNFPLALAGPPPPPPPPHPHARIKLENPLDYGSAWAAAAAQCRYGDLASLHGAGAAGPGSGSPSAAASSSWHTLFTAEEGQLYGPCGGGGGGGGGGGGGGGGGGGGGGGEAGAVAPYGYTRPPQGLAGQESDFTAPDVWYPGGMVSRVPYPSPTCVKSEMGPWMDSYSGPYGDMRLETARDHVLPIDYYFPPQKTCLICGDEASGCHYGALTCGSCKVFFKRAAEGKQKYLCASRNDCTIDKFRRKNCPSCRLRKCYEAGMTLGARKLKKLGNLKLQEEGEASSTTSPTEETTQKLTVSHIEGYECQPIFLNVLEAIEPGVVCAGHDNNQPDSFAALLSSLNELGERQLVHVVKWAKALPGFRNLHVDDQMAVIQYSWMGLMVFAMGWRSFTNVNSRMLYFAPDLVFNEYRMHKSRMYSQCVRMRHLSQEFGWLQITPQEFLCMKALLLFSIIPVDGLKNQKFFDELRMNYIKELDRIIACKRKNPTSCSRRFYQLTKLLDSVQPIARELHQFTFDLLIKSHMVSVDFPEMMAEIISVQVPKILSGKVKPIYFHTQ
Chain of Delta-type opioid receptor (Homo sapiens) (P41143 whole entry): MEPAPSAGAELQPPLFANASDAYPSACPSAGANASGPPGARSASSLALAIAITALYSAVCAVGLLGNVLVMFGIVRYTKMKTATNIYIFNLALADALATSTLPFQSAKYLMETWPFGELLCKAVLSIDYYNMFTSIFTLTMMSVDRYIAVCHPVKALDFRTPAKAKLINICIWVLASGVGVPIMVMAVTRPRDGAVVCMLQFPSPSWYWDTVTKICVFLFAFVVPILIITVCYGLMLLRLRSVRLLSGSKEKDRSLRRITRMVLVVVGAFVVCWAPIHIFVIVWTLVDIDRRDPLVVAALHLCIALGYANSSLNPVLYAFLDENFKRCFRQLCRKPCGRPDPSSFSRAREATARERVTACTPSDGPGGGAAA
Chain of Alpha-2A adrenergic receptor (Homo sapiens) (P08913 whole entry): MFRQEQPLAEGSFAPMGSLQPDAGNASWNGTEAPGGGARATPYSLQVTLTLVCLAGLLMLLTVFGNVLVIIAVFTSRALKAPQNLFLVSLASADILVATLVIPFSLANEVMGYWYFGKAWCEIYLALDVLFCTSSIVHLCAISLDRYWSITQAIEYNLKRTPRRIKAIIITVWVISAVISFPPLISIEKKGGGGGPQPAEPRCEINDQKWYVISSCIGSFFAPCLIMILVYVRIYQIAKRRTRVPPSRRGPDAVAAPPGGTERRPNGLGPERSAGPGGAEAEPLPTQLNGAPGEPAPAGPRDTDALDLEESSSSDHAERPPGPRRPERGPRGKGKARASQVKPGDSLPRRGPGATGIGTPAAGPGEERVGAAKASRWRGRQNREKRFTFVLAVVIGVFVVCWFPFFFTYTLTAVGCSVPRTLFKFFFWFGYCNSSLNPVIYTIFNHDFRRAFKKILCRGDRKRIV
Chain of Muscarinic acetylcholine receptor M3 (P20309 whole entry): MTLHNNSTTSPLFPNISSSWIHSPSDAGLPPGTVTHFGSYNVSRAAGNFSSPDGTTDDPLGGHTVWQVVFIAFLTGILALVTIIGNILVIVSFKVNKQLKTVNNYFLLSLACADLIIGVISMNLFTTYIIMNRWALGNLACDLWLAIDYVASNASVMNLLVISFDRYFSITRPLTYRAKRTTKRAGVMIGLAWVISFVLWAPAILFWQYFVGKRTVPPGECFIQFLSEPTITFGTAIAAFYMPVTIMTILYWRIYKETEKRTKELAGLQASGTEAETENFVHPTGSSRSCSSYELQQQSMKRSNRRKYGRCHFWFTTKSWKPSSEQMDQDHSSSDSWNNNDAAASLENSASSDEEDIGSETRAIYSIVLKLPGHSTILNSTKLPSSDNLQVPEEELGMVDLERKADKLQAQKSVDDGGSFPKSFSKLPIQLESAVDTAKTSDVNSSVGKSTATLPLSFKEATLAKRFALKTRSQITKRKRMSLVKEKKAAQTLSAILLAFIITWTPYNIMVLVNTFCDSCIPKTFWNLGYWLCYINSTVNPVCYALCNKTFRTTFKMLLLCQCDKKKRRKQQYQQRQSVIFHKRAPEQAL
Chain of Prostaglandin E2 receptor EP4 subtype (Homo sapiens) (P35408 whole entry): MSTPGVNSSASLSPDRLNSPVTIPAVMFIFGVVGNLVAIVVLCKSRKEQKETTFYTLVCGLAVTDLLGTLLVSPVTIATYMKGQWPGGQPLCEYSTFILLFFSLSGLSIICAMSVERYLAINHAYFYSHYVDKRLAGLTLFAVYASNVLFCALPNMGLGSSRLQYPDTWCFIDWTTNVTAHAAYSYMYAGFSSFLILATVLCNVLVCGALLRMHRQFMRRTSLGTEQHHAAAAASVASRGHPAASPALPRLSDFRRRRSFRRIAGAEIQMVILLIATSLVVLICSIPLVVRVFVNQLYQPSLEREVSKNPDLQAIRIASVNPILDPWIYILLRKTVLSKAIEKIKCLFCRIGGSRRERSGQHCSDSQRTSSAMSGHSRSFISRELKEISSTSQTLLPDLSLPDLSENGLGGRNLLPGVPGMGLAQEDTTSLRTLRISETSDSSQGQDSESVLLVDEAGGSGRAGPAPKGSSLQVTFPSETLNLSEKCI
Chain of Gamma-aminobutyric acid type B receptor subunit 1 (Homo sapiens) (Q9UBS5 whole entry): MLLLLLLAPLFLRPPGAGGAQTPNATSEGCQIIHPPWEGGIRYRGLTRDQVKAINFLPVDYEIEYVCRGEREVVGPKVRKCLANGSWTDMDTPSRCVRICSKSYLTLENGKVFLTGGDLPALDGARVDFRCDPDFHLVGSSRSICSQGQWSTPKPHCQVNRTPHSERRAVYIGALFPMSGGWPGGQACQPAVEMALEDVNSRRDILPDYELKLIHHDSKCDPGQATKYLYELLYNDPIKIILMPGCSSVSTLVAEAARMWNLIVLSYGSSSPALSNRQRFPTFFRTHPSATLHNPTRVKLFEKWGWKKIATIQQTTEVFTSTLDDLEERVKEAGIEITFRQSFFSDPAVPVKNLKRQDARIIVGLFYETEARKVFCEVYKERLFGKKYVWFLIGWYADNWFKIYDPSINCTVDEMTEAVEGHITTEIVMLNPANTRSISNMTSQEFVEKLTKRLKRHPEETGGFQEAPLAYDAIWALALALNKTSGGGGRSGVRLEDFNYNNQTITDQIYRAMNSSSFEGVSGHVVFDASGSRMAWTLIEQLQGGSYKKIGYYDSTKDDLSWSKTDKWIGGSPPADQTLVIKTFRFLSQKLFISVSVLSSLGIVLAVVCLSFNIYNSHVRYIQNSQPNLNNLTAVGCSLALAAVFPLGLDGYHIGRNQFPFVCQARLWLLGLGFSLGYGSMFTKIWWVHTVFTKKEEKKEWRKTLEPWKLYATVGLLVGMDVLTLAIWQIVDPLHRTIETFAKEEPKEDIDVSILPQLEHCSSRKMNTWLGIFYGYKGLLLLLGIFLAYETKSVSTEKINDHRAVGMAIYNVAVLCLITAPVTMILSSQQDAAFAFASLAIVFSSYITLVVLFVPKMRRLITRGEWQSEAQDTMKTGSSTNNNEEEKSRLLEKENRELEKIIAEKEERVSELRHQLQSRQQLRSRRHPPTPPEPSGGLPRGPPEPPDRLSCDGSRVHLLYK
Chain of Sigma non-opioid intracellular receptor 1 (Homo sapiens) (Q99720 whole entry): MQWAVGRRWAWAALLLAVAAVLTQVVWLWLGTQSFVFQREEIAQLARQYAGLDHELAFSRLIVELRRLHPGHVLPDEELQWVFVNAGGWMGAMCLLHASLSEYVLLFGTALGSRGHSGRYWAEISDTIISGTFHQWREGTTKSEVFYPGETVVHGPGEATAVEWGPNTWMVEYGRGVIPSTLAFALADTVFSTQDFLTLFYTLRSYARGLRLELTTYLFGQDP

COc1nnc2sc(C(=O)NC3CN(c4ncc(C(F)(F)F)cn4)C3)c(N)c2c1C
Activity [1]: > 50% | Activity [2]: > 50% | half-life [3]: 1 h | solubility [4]: 15 µM (≈ 6.59 µg/mL) | pEC50 [5]: 7.17 | Activity (Rattus norvegicus [6]): > 50% | Activity [7]: > 50% | pEC50 [8]: < 4.52 | Activity (Rattus norvegicus [9]): 44% | Activity [10]: > 50% | minimal effective dose (Mus musculus): 1 mg/kg | Kp uu at 1.5 h [11]: 0.35 | pEC50 [12]: < 4.52 | Kp at 0.25 h [13]: 0.34 | Activity (Rattus norvegicus [14]): > 50% | clearance [15]: 7.7 mL/min/kg | Activity [16]: > 50% | Activity [17]: > 50% | Activity [18]: > 50% | Activity [19]: > 50% | %max [20]: 71% | pEC50 [21]: 7.05 | Activity [22]: > 50%
